Experimental data from paper PMC11435058, “Synthesis of New Thiazole-Privileged Chalcones as Tubulin Polymerization Inhibitors with Potential Anticancer Activities” (Pharmaceuticals, 2024).

Legend:
OVCAR-3 = experiment: cells; details: Homo sapiens
HL-60(TB) = experiment: NCI-60 anticancer screen (SRB; single dose and five doses); details: Homo sapiens
K-562 = experiment: as above; details: Homo sapiens
SR = experiment: as above; details: Homo sapiens
EKVX = experiment: as above; details: Homo sapiens
HT29 = experiment: as above; details: Homo sapiens
KM12 = experiment: as above; details: Homo sapiens
SW-620 = experiment: as above; details: Homo sapiens
SF-268 = experiment: as above; details: Homo sapiens
SNB-75 = experiment: as above; details: Homo sapiens, SNB-75, 48 h, read-out: Growth Percentage
U251 = experiment: as above; details: Homo sapiens
LOX IMVI = experiment: as above; details: Homo sapiens
MDA-MB-435 = experiment: as above; details: Homo sapiens
SK-MEL-2 = experiment: as above; details: Homo sapiens
SK-MEL-5 = experiment: as above; details: Homo sapiens
UACC-257 = experiment: as above; details: Homo sapiens
UACC-62 = experiment: as above; details: Homo sapiens
IGROV1 = experiment: as above; details: Homo sapiens
OVCAR-4 = experiment: as above; details: Homo sapiens
OVCAR-5 = experiment: as above; details: Homo sapiens
786-0 = experiment: as above; details: Homo sapiens
CAKI-1 = experiment: as above; details: Homo sapiens
SN12C = experiment: as above; details: Homo sapiens
UO-31 = experiment: as above; details: Homo sapiens
DU-145 = experiment: as above; details: Homo sapiens
MCF7 = experiment: as above; details: Homo sapiens
MDA-MB-231/ATCC = experiment: as above; details: Homo sapiens
HS 578T = experiment: as above; details: Homo sapiens
T-47D = experiment: as above; details: Homo sapiens, T47D
[1] = 48 h, read-out: Growth Percentage

With `Cc1[nH]c(=S)sc1C(=O)/C=C/c1ccc(F)cc1` [2c, (E)-3-(4-Fluorophenyl)-1-(4-Methyl-2-Thioxo-2,3-Dihydrothiazol-5-yl)Prop-2-En-1-One] the GI50 (OVCAR-3; OVCAR-3) was 2.42 µM, the activity at 10 µM (OVCAR-3; OVCAR-3, 48 h, read-out: Growth Percentage) was -10.9% and the CC50 (OVCAR-3; OVCAR-3, read-out: LC50) was 24.5 µM. For the same molecule, the IC (TGI) (OVCAR-3; OVCAR-3, read-out: TGI) was 6.81 µM, the GI50 (HL-60(TB); HL-60) was 2.83 µM and the activity at 10 µM (HL-60(TB); HL-60, 48 h, read-out: Growth Percentage) was 13%. The CC50 (HL-60(TB); HL-60, read-out: LC50) was > 100 µM, the IC (TGI) (HL-60(TB); HL-60, read-out: TGI) was 32.2 µM and the GI50 (K-562; K562) was 3.25 µM. For the same molecule, the activity at 10 µM (K-562; K562, 48 h, read-out: Growth Percentage) was 20.4%, the CC50 (K-562; K562, read-out: LC50) was > 100 µM and the IC (TGI) (K-562; K562, read-out: TGI) was 48.8 µM. The GI50 (SR) was 3.19 µM, the activity at 10 µM (SR; [1]) was 18.3% and the CC50 (SR; read-out: LC50) was > 100 µM. The IC (TGI) (SR; read-out: TGI) was > 100 µM, the GI50 (EKVX) was 12.8 µM and the activity at 10 µM (EKVX; [1]) was 51%. The CC50 (EKVX; read-out: LC50) was 64.6 µM, the IC (TGI) (EKVX; read-out: TGI) was 28.7 µM and the GI50 (HT29; HT-29) was 10.6 µM. For the same molecule, the activity at 10 µM (HT29; HT-29, 48 h, read-out: Growth Percentage) was 73.3%, the CC50 (HT29; HT-29, read-out: LC50) was 52.4 µM and the IC (TGI) (HT29; HT-29, read-out: TGI) was 23.6 µM. It also gave a GI50 (KM12; KM12) of 4.28 µM, an activity at 10 µM (KM12; KM12, 48 h, read-out: Growth Percentage) of 6.85% and a CC50 (KM12; KM12, read-out: LC50) of 41 µM. It also gave an IC (TGI) (KM12; KM12, read-out: TGI) of 15.4 µM, a GI50 (SW-620; SW-620) of 3.37 µM and an activity at 10 µM (SW-620; SW-620, 48 h, read-out: Growth Percentage) of 13.8%. For the same molecule, the CC50 (SW-620; SW-620, read-out: LC50) was 49.3 µM, the IC (TGI) (SW-620; SW-620, read-out: TGI) was 15 µM and the GI50 (SF-268; SF-268) was 13 µM. It also gave an activity at 10 µM (SF-268; SF-268, 48 h, read-out: Growth Percentage) of 58.6%, a CC50 (SF-268; SF-268, read-out: LC50) of 63.1 µM and an IC (TGI) (SF-268; SF-268, read-out: TGI) of 28.7 µM. It also gave an activity at 10 µM (SNB-75) of 36.5%, a GI50 (U251; U-251) of 3.63 µM and an activity at 10 µM (U251; U-251, 48 h, read-out: Growth Percentage) of 14.1%. It also gave a CC50 (U251; U-251, read-out: LC50) of 41.9 µM, an IC (TGI) (U251; U-251, read-out: TGI) of 15.1 µM and a GI50 (LOX IMVI) of 3.26 µM. For the same molecule, the activity at 10 µM (LOX IMVI; [1]) was 8.91%, the CC50 (LOX IMVI; read-out: LC50) was 36.6 µM and the IC (TGI) (LOX IMVI; read-out: TGI) was 12.7 µM. For the same molecule, the GI50 (MDA-MB-435; MDA-MB-435) was 4.24 µM, the activity at 10 µM (MDA-MB-435; MDA-MB-435, 48 h, read-out: Growth Percentage) was 4.67% and the CC50 (MDA-MB-435; MDA-MB-435, read-out: LC50) was 48.7 µM. The IC (TGI) (MDA-MB-435; MDA-MB-435, read-out: TGI) was 17.5 µM, the GI50 (SK-MEL-2; SK-MEL-2) was 11.6 µM and the activity at 10 µM (SK-MEL-2; SK-MEL-2, 48 h, read-out: Growth Percentage) was 56.6%. For the same molecule, the CC50 (SK-MEL-2; SK-MEL-2, read-out: LC50) was 50.1 µM, the IC (TGI) (SK-MEL-2; SK-MEL-2, read-out: TGI) was 24.1 µM and the GI50 (SK-MEL-5; SK-MEL-5) was 6.77 µM. The activity at 10 µM (SK-MEL-5; SK-MEL-5, 48 h, read-out: Growth Percentage) was 42.6%, the CC50 (SK-MEL-5; SK-MEL-5, read-out: LC50) was 44.2 µM and the IC (TGI) (SK-MEL-5; SK-MEL-5, read-out: TGI) was 19.5 µM. The GI50 (UACC-257; UACC-257) was 12.6 µM, the activity at 10 µM (UACC-257; UACC-257, 48 h, read-out: Growth Percentage) was 64.1% and the CC50 (UACC-257; UACC-257, read-out: LC50) was 56.6 µM. It also gave an IC (TGI) (UACC-257; UACC-257, read-out: TGI) of 26.7 µM, a GI50 (UACC-62; UACC-62) of 5.3 µM and an activity at 10 µM (UACC-62; UACC-62, 48 h, read-out: Growth Percentage) of 47.3%. The IC (TGI) (UACC-62; UACC-62, read-out: TGI) was 19.3 µM, the GI50 (IGROV1; IGROV-1) was 4.93 µM and the activity at 10 µM (IGROV1; IGROV-1, 48 h, read-out: Growth Percentage) was 51.2%. The CC50 (IGROV1; IGROV-1, read-out: LC50) was 62.3 µM, the IC (TGI) (IGROV1; IGROV-1, read-out: TGI) was 19.7 µM and the GI50 (OVCAR-4; OVCAR-4) was 6.03 µM. The activity at 10 µM (OVCAR-4; OVCAR-4, 48 h, read-out: Growth Percentage) was 48.4%, the CC50 (OVCAR-4; OVCAR-4, read-out: LC50) was 44.7 µM and the IC (TGI) (OVCAR-4; OVCAR-4, read-out: TGI) was 19.6 µM. The GI50 (OVCAR-5; OVCAR-5) was 15.6 µM, the activity at 10 µM (OVCAR-5; OVCAR-5, 48 h, read-out: Growth Percentage) was 119% and the CC50 (OVCAR-5; OVCAR-5, read-out: LC50) was 57.7 µM. For the same molecule, the IC (TGI) (OVCAR-5; OVCAR-5, read-out: TGI) was 30 µM, the GI50 (786-0; 786-0) was 4.59 µM and the activity at 10 µM (786-0; 786-0, 48 h, read-out: Growth Percentage) was 37.3%. The CC50 (786-0; 786-0, read-out: LC50) was 47.1 µM, the IC (TGI) (786-0; 786-0, read-out: TGI) was 17.6 µM and the GI50 (CAKI-1; CAKI-1) was 6.89 µM. The activity at 10 µM (CAKI-1; CAKI-1, 48 h, read-out: Growth Percentage) was 31.6%, the CC50 (CAKI-1; CAKI-1, read-out: LC50) was 45.4 µM and the IC (TGI) (CAKI-1; CAKI-1, read-out: TGI) was 20.2 µM. It also gave a GI50 (SN12C) of 3.95 µM, an activity at 10 µM (SN12C; [1]) of 24.1% and a CC50 (SN12C; read-out: LC50) of 46.7 µM. The IC (TGI) (SN12C; read-out: TGI) was 17 µM, the GI50 (UO-31; UO-31) was 2.88 µM and the activity at 10 µM (UO-31; UO-31, 48 h, read-out: Growth Percentage) was 28.1%. It also gave an IC (TGI) (UO-31; UO-31, read-out: TGI) of 15.7 µM, a GI50 (DU-145; DU-145) of 4.32 µM and an activity at 10 µM (DU-145; DU-145, 48 h, read-out: Growth Percentage) of 20.3%. The CC50 (DU-145; DU-145, read-out: LC50) was 39.9 µM, the IC (TGI) (DU-145; DU-145, read-out: TGI) was 15.7 µM and the GI50 (MCF7; MCF7) was 2.65 µM. It also gave an activity at 10 µM (MCF7; MCF7, 48 h, read-out: Growth Percentage) of 9.48%, a CC50 (MCF7; MCF7, read-out: LC50) of 37 µM and an IC (TGI) (MCF7; MCF7, read-out: TGI) of 11.4 µM. For the same molecule, the GI50 (MDA-MB-231/ATCC; MDA-MB-231) was 15.7 µM, the activity at 10 µM (MDA-MB-231/ATCC; MDA-MB-231, 48 h, read-out: Growth Percentage) was 29.7% and the CC50 (MDA-MB-231/ATCC; MDA-MB-231, read-out: LC50) was 66.1 µM. It also gave an IC (TGI) (MDA-MB-231/ATCC; MDA-MB-231, read-out: TGI) of 32.2 µM, a GI50 (HS 578T) of 13.2 µM and an activity at 10 µM (HS 578T; [1]) of 95.3%. For the same molecule, the CC50 (HS 578T; read-out: LC50) was > 100 µM, the IC (TGI) (HS 578T; read-out: TGI) was 40.2 µM and the GI50 (T-47D) was 3.94 µM. For the same molecule, the CC50 (T-47D; read-out: LC50) was > 100 µM and the IC (TGI) (T-47D; read-out: TGI) was 28.8 µM.
